Laboratory results as given in patent US9938261B2, “Heterocyclic compounds and methods of use thereof” (AMBIT BIOSCIENCES CORPORATION, priority 2011, dated 2018).
pKd: −log10 of the molar value.

Columns and labels:
[1] = target: kinase panel containing either 386 or 392 distinct kinases; assay: Kinase selectivity score S10 from competition binding panel; details: 10 μM, panel of 386 or 392 distinct kinases
Method in brief: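 Compounds at 10 μM competed against immobilised affinity ligands for T7 phage-fused or HEK-293-expressed DNA-tagged kinases, 1 h at room temperature; bound kinase eluted and quantified by qPCR. S10 = fraction of distinct non-mutant kinases with percent of DMSO control below 10.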

FLT3 = target: T1, FLT3 (Homo sapiens, UniProt P36888); assay: Competition binding assay, FLT3 Kd; details: competition binding
T1 construct: made in house
T1 sequence (P36888 27-993): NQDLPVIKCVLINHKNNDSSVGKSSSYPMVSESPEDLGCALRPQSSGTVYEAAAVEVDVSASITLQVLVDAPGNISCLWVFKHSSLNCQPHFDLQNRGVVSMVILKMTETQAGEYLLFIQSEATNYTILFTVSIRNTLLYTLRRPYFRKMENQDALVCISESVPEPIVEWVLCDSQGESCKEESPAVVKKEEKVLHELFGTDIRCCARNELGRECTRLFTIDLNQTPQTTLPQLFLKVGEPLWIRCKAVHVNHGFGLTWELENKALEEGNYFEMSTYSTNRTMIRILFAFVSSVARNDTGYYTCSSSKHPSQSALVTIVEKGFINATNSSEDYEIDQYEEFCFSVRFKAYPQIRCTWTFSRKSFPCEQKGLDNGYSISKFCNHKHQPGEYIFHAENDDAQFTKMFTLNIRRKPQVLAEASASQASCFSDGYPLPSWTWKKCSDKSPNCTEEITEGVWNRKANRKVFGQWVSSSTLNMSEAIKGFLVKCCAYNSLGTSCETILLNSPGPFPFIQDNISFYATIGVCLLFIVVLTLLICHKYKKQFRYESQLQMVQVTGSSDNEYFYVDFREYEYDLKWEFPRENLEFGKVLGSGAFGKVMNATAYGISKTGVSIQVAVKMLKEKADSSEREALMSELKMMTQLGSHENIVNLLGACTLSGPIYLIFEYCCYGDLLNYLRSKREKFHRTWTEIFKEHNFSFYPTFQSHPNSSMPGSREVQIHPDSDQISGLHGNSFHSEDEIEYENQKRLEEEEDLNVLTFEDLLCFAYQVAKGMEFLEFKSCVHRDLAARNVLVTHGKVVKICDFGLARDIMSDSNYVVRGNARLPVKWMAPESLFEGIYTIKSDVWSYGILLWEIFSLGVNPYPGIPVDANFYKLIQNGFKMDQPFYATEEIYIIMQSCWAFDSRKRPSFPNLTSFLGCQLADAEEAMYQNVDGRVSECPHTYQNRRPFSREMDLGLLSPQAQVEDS
Method in brief: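 Kinases, either T7 phage fusions or HEK-293-expressed and DNA-tagged, competed with test compounds for immobilized biotinylated affinity ligand on streptavidin beads in binding buffer (20% SeaBlock, 0.17×PBS, 0.05% Tween 20, 6 mM DTT). After 1 hour at room temperature, bead-bound kinase was eluted and quantified by qPCR; Kd from eleven-point threefold dilutions.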

SMILES	Kinase specificity S(10) [1]	pKd (FLT3)
O[C@@H]1CCCC[C@H]1Nc1nc2c(F)cc(Cn3cnc4cccnc43)c(F)c2s1 [Example 168, (1R,2R)-2-((6-((3H-imidazo[4,5-b]pyridin-3-yl)methyl)-4,7-difluorobenzo[d]thiazol-2-yl)amino)cyclohexanol]	A (A≤0.01)	5.30 to 6.00
N#Cc1cnc2c(c1)ncn2Cc1ccc2nc(N[C@@H]3CCCC[C@H]3O)oc2c1 [Example 124, 3-((2-(((1R,2R)-2-hydroxycyclohexyl)amino)benzo[d]oxazol-6-yl)methyl)-3H-imidazo[4,5-b]pyridine-6-carbonitrile]	B (0.01<B≤0.02)	6.00 to 6.70
O[C@@H]1CCCC[C@H]1Nc1nc2c(Br)cc(Cn3cnc4cccnc43)cc2s1 [Example 166, (1R,2R)-2-((6-((3H-imidazo[4,5-b]pyridin-3-yl)methyl)-4-bromobenzo[d]thiazol-2-yl)amino)cyclohexanol]	A (A≤0.01)	6.00 to 6.70
COc1ccc2ncn(Cc3ccc4nc(N[C@@H]5CCCC[C@H]5O)oc4c3)c2c1 [Example 152, (1R,2R)-2-((6-((6-methoxy-1H-benzo[d]imidazol-1-yl)methyl)benzo[d]oxazol-2-yl)amino)cyclohexanol]	B (0.01<B≤0.02)	≥ 6.70
O[C@@H]1CCCC[C@H]1Nc1nc2ccc(Cc3cnc4cc(-n5cccn5)ccn34)cc2s1 [Example 167, (1R,2R)-2-((6-((7-(1H-pyrazol-1-yl)imidazo[1,2-a]pyridin-3-yl)methyl)benzo[d]thiazol-2-yl)amino)cyclohexanol]	A (A≤0.01)	5.30 to 6.00
O[C@@H]1CCCC[C@H]1Nc1nc2ccc(Cn3cnc4cncnc43)cc2o1 [Example 118, (1R,2R)-2-((6-((9H-purin-9-yl)methyl)benzo[d]oxazol-2-yl)amino)cyclohexanol]	A (A≤0.01)	5.30 to 6.00
Fc1cnc2c(c1)ncn2Cc1ccc2nc(N[C@H]3C=CCCC3)sc2c1 [Example 176, (R)—N-(cyclohex-2-en-1-yl)-6-((6-fluoro-3H-imidazo[4,5-b]pyridin-3-yl)methyl)benzo[d]thiazol-2-amine]	B (0.01<B≤0.02)	5.30 to 6.00
N#Cc1ccc2ncc(Cc3ccc4nc(N[C@@H]5CCCC[C@H]5O)sc4c3)n2n1 [Example 221, 3-((2-(((1R,2R)-2-hydroxycyclohexyl)amino)benzo[d]thiazol-6-yl)methyl)imidazo[1,2-b]pyridazine-6-carbonitrile]	B (0.01<B≤0.02)	≥ 6.70
Cn1nnnc1-c1cnc2c(c1)ncn2Cc1ccc2nc(N[C@@H]3CCCC[C@H]3O)sc2c1 [Example 134, (1R,2R)-2-((6-((6-(1-methyl-1H-tetrazol-5-yl)-3H-imidazo[4,5-b]pyridin-3-yl)methyl)benzo[d]thiazol-2-yl)amino)cyclohexanol]	A (A≤0.01)	6.00 to 6.70
CC(C)(O)c1cnc2c(c1)ncn2Cc1ccc2nc(N[C@@H]3CCCC[C@H]3O)sc2c1 [Example 109, (1R,2R)-2-((6-((6-(2-hydroxypropan-2-yl)-3H-imidazo[4,5-b]pyridin-3-yl)methyl)benzo[d]thiazol-2-yl)amino)cyclohexanol]	A (A≤0.01)	5.30 to 6.00
O[C@@H]1CCCC[C@H]1Nc1nc2ccc(Cc3cnc4cnccn34)cc2s1 [Example 125, (1R,2R)-2-((6-(imidazo[1,2-a]pyrazin-3-ylmethyl)benzo[d]thiazol-2-yl)amino)cyclohexanol]	B (0.01<B≤0.02)	5.30 to 6.00

Now from value to compound:

Kinase specificity S(10) [1]	pKd (FLT3)	SMILES
A (A≤0.01)	5.30 to 6.00	CS(=O)(=O)c1ccc2c(c1)ncn2Cc1ccc2nc(N[C@@H]3CCCC[C@H]3O)sc2c1 [Example 112, (1R,2R)-2-((6-((5-(methylsulfonyl)-1H-benzo[d]imidazol-1-yl)methyl)benzo[d]thiazol-2-yl)amino)cyclohexanol]
A (A≤0.01)	5.30 to 6.00	CC(O)c1cnc2c(c1)ncn2Cc1ccc2nc(N[C@@H]3CCCC[C@H]3O)sc2c1 (stereo partly drawn) [Example 115, (1R,2R)-2-((6-((6-((R,S)-1-hydroxyethyl)-3H-imidazo[4,5-b]pyridin-3-yl)methyl)benzo[d]thiazol-2-yl)amino)cyclohexanol]
A (A≤0.01)	6.00 to 6.70	CCOc1ccc2c(c1)ncn2Cc1ccc2nc(N[C@@H]3CCCC[C@H]3O)sc2c1 [Example 138, (1R,2R)-2-((6-((5-ethoxy-1H-benzo[d]imidazol-1-yl)methyl)benzo[d]thiazol-2-yl)amino)cyclohexanol]
A (A≤0.01)	5.30 to 6.00	CS(=O)(=O)c1ccc2ncn(Cc3ccc4nc(N[C@@H]5CCCC[C@H]5O)sc4c3)c2c1 [Example 113, (1R,2R)-2-((6-((6-(methylsulfonyl)-1H-benzo[d]imidazol-1-yl)methyl)benzo[d]thiazol-2-yl)amino)cyclohexanol]
C (C>0.02)	6.00 to 6.70	O[C@@H]1CCCC[C@H]1Nc1nc2ccc(Cn3cnc4cc(OCCN5CCOCC5)ccc43)cc2s1 [Example 171, (1R,2R)-2-((6-((5-(2-morpholinoethoxy)-1H-benzo[d]imidazol-1-yl)methyl)benzo[d]thiazol-2-yl)amino)cyclohexanol]
B (0.01<B≤0.02)	5.30 to 6.00	O[C@@H]1CCCC[C@H]1Nc1nc2ccc(Cn3cnc4cc(F)ccc43)cc2s1 [Example 129, (1R,2R)-2-((6-((5-fluoro-1H-benzo[d]imidazol-1-yl)methyl)benzo[d]thiazol-2-yl)amino)cyclohexanol]
A (A≤0.01)	< 5.30	O=c1c(N2CCOCC2)nccn1Cc1ccc2nc(N[C@@H]3CCCC[C@H]3O)sc2c1 [Example 222, 1-((2-(((1R,2R)-2-hydroxycyclohexyl)amino)benzo[d]thiazol-6-yl)methyl)-3-morpholinopyrazin-2(1H)-one]
A (A≤0.01)	6.00 to 6.70	C=C(c1ccc2c(c1)ncn2Cc1ccc2nc(N[C@@H]3CCCC[C@H]3O)sc2c1)C(F)(F)F [Example 175, (1R,2R)-2-((6-((5-(3,3,3-trifluoroprop-1-en-2-yl)-1H-benzo[d]imidazol-1-yl)methyl)benzo[d]thiazol-2-yl)amino)cyclohexanol]
B (0.01<B≤0.02)	6.00 to 6.70	COc1ccc2c(c1)ncn2Cc1ccc2nc(N[C@@H]3CCCC[C@H]3O)oc2c1 [Example 151, (1R,2R)-2-((6-((5-methoxy-1H-benzo[d]imidazol-1-yl)methyl)benzo[d]oxazol-2-yl)amino)cyclohexanol]
A (A≤0.01)	6.00 to 6.70	C#Cc1ccc2ncn(Cc3ccc4nc(N[C@@H]5CCCC[C@H]5O)sc4c3)c2c1 [Example 122, (1R,2R)-2-((6-((6-ethynyl-1H-benzo[d]imidazol-1-yl)methyl)benzo[d]thiazol-2-yl)amino)cyclohexanol]
B (0.01<B≤0.02)	≥ 6.70	O[C@@H]1CCCC[C@H]1Nc1nc2ccc(Cc3cnc4ccc(N5CCOCC5)nn34)cc2s1 [Example 155, (1R,2R)-2-((6-((6-morpholinoimidazo[1,2-b]pyridazin-3-yl)methyl)benzo[d]thiazol-2-yl)amino)cyclohexanol]
B (0.01<B≤0.02)	5.30 to 6.00	CC(=O)c1ccc2ncn(Cc3ccc4nc(N[C@@H]5CCCC[C@H]5O)sc4c3)c2c1 [Example 120, 1-(1-((2-(((1R,2R)-2-hydroxycyclohexyl)amino)benzo[d]thiazol-6-yl)methyl)-1H-benzo[d]imidazol-6-yl)ethanone]
B (0.01<B≤0.02)	6.00 to 6.70	O[C@@H]1CCCC[C@H]1Nc1nc2ccc(Cn3cnc4cc(-n5ccnc5)ccc43)cc2s1 [Example 226, (1R,2R)-2-((6-((5-(1H-imidazol-1-yl)-1H-benzo[d]imidazol-1-yl)methyl)benzo[d]thiazol-2-yl)amino)cyclohexanol]
